The values that follow come from paper doi:10.1101/2024.07.10.602890, “H105A peptide eye drops promote photoreceptor survival in murine and human models of retinal degeneration” (bioRxiv, 2024).

The series relates to rd10 and rd10/Serpinf1−/− mice. The series is described as follows: Electroretinography (ERG) a-wave and b-wave after peptide eye drops. In kind it is in vivo, mouse. To be noted: for ERG a- and b-wave responses relative to vehicle-treated eyes: dark-adapted rd10 and rd10/Serpinf1−/− mice at P21, daily eye drops, n = 8. The text has this:
Fig. 5: Effect of daily eyedrops of PEDF peptides on ERG a-wave and b-wave retinal function (A and B) Representative ERG waveforms for rd10 (A) and rd10/Serpinf1^−/− (B) mice at P21 in response to a light flash (1 cd.s/m^2). Amplitude (y-axis) is plotted against time in milliseconds (ms, x-axis). Treatments are indicated to the right of each plot and are color coded, with control wild type C57Bl/6J mice without peptide treatment shown in blue. A-wave and b-wave are indicated by arrows. (C and D) Photoreceptor a-wave amplitudes. Averages of photoreceptor a-wave amplitudes for rd10 (C) and rd10/Serpinf1^−/− (D) mice as a function of light intensity (cd/s.m^2, x-axis). Responses of animals treated with 17-mer are shown in green, H105A in black, and vehicle (HBSS) in red. Wildtype responses are shown in blue. (E and F) Bipolar cell b-wave amplitudes. Averages of bipolar cell b-wave amplitudes for rd10 (E) and rd10/Serpinf1^−/− (F) mice as a function of light intensity (cd/s.m^2, x-axis), with treatments indicated as in panels (C) and (D). The number of mice evaluated for the data shown in Panels C-F were n = 8 for each rd10, rd10/Serpinf1^−/− and wild type. Each data point represents the average ± SD of each genotype, analyzed by unpaired t-test. Statistical significance between H105A and vehicle is indicated by ##p < 0.01, ###p < 0.001, ####p < 0.0001, and between H105A and 17-mer by **p < 0.01, ***p < 0.001, ****p < 0.0001.
Electroretinogram (ERG) for rd10 and rd10/Serpinf1^−/− mice were recorded in both eyes of each animal using an Espion E2 system with ColorDome (Diagnosys LLC) with a heated surface and mice were dark-adapted overnight as previously described ([29]). Mice were placed on the heated surface and electrodes were placed in the mouth and a subdermal platinum needle electrode was placed in the back of the mouse to serve as ground. Responses were elicited with increasing light impulses with intensity from 0.0001 to 10 cd-seconds per meter squared (cd.s/m^2). Amplitudes for a-wave were measured from stimulus to the trough of the a-wave and b-wave amplitudes were measured from a-wave to b-wave trough or peak. The values from the a and b waves for both eyes were exported to Microsoft Excel to obtained amplitude values for each mouse.
Figure S2. Effects of extending the timeline or administering eye drops of 17-mer[H105A] peptide every other day in rd10 mic e.
Eye drops of H105A peptide solution were administered to r d1 0 mice either daily (Fig. S2A) or every other day (Fi g. S 2D). A total of 5 µl of a solution containing H105A peptide at 1 mg/ml in HBSS were applied as eye drops. The vehicle HBSS was added as eye drops in the contralateral eyes. When eye […]
intensity light at P25 (Fig. S2C). When eye drops of H105A were added every other day, a rescue in the ONL thickness in r d10 mice compared to vehicle was also observed (Fi g. S 2E), with an improvement in a- […]
efficacy of peptide H105A eye drops either daily or every other day in an extended timeline to stabilize photoreceptor morphology and light response function loss in r d10 mice, however, these were less efficacious than daily H105A peptide eye drops. […]
(C) ERG of r d1 0 mice at P25 and treated as in Fi g. […] For ERG data shown, the number of mice evaluated were n =5 for rd10 and each data point corresponds to the average ± SD of each genotype by unpaired t-test. *p < 0.05, **p < 0.01, * ** p < 0 .001 , ****p < 0.0001. […]

Ends that are not written are not given here.

On to QRTESIIHRALYYDLIS [17-mer], for which the “ERG a- and b-wave responses relative to vehicle-treated eyes” value is “protected visual function”. As to QRTESIIARALYYDLIS [H105A], the “ERG a- and b-wave responses relative to vehicle-treated eyes” value is “protected visual function”. Also, the ERG a-wave result (rd10 mice, eye drops every other day P15 until P23, ERG at P25, n = 5) is “improvement”.
